Test results published in BindingDB's records for doi:10.1021/jm00171a003 (Merck, 1990).
Numbered stars: 1 amine (or outer) side, 2 acyl side, 3 side chain; on linkers, the order of the positions; unused ones are H or OH. Square brackets hold non-standard residues; d marks the D form. Peptide text beside a SMILES is read from it. X6 = CN(C)C[C@H]1C=NN([*:1])[C@H](C(=O)[*:2])C1; X5 = O=C1CC[C@@H](C(=O)[*:2])N([*:1])N1; dPiz(1,6-dehydro) = O=C(O)[C@H]1CCC=NN1; X2 = CN1CCC[C@@H](C(=O)[*:2])N1[*:1]; X1 = CN1CCC[C@H](C(=O)[*:2])N1[*:1]; X7 = O=C([C@@H]1C=CC=NN1[*:1])[*:2]; X3 = O=C([C@H]1CCCNN1[*:1])[*:2]; dNMeF = CN[C@H](Cc1ccccc1)C(=O)O

Tests used:
[1] = target: Vasopressin V1a receptor (Rattus norvegicus) (UniProt P30560); test: Binding affinity against Vasopressin receptor in rat liver
Vasopressin V1a receptor (Rattus norvegicus), sequence (P30560 whole entry, looked up): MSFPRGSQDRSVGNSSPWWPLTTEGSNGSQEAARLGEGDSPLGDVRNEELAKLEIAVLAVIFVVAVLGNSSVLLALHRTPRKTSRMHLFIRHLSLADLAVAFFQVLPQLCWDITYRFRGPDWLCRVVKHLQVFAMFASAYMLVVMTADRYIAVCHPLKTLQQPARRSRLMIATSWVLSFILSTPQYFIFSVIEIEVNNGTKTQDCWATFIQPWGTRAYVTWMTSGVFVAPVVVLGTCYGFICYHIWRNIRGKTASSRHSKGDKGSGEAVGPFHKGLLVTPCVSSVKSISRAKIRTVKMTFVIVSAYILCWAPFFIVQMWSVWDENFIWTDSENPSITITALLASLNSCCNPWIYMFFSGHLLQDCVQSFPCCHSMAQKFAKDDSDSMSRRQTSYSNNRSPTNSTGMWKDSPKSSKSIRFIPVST

[2] = target: Vasopressin V1a receptor (Rattus norvegicus) (UniProt P30560); test: as above; remark: listed apart in the source

Ki [1] [nM]	Ki [2] [nM]	SMILES
> 30000	–	CC[C@H](C)[C@@H]1NC[C@@H](Cc2ccccc2)NC(=O)[C@@H]2CCCN2C(=O)[C@@H](Cc2ccccc2)N(C)C(=O)[C@@H]2CCC=NN2C(=O)[C@H]2CCC=NN2C1=O
–	1600	CC[C@H](C)[C@@H]1NC(=O)[C@@H](Cc2ccccc2)NC(=O)[C@@H]2CCCN2C(=O)[C@@H](Cc2ccccc2)N(C)C(=O)[C@@H]2CCC(=O)NN2C(=O)[C@H]2CCC=NN2C1=O (cyclo(I[dPiz(1,6-dehydro)][X5][dNMeF]P[dF]))
7400	–	CC[C@H](C)[C@@H]1NC(=O)[C@@H](Cc2ccccc2)NC(=O)[C@@H]2CCCN2C(=O)[C@@H](Cc2ccccc2)N(C)C(=O)[C@@H]2CCCN(C)N2C(=O)[C@H]2CCCN(C)N2C1=O (cyclo(I[X1][X2][dNMeF]P[dF]))

The remaining lines, values behind:

SMILES	Ki [1] [nM]	Ki [2] [nM]
CC[C@H](C)[C@@H]1NC(=O)[C@@H](Cc2ccccc2)NC(=O)[C@@H]2CCCN2C(=O)[C@@H](Cc2ccccc2)N(C)C(=O)[C@@H]2C[C@@H](CN(C)C)C=NN2C(=O)[C@H]2CCC=NN2C1=O (cyclo(I[dPiz(1,6-dehydro)][X6][dNMeF]P[dF]))	550	–
CC[C@H](C)[C@H]1C(=O)N2NCCC[C@@H]2C(=O)N2NCCC[C@H]2C(=O)N(C)[C@H](Cc2ccccc2)C(=O)N2CCC[C@H]2C(=O)N[C@H](Cc2ccccc2)C(=O)N1O	2200	–
CC[C@H](C)[C@@H]1NC(=O)[C@@H](Cc2ccccc2)NC(=O)[C@@H]2CCCN2C(=O)[C@@H](Cc2ccccc2)N(C)C(=O)[C@@H]2C=CC=NN2C(=O)[C@H]2CCC=NN2C1=O (cyclo(I[dPiz(1,6-dehydro)][X7][dNMeF]P[dF]))	390	–
CC[C@H](C)[C@@H]1NC(=O)[C@@H](Cc2ccccc2)NC(=O)[C@@H]2CCCN2C(=O)[C@@H](Cc2ccccc2)N(C)C(=O)[C@@H]2CCC(=O)NN2C(=O)[C@H]2CCCNN2C1=O (cyclo(I[X3][X5][dNMeF]P[dF]))	–	3900
CC[C@@H](C)[C@@H]1NC(=S)[C@@H](Cc2ccccc2)NC(=O)[C@@H]2CCCN2C(=O)[C@@H](Cc2ccccc2)N(C)C(=O)[C@@H]2CCC=NN2C(=O)[C@H]2CCC=NN2C1=O	–	140
